In patent publication US12403174B2, “Immunomodulators” (Bristol-Myers Squibb Company, priority 2020, dated 2025):
*1 amine or outer side, *2 acyl side, *3 side chain or, on linkers, in order; H or OH if unused. Where a SMILES comes first, the peptide text is derived from it. Bridges are numbered along the chain shown (N, C = ends). [ ]: non-standard residue; d: D form. The star is where a group is joined. Trp(1-CH2COOH) = N[C@@H](Cc1cn(CC(=O)O)c2ccccc12)C(=O)O; X6 = CCOC(=O)Cn1cc(C[C@H](N[*:1])C(=O)[*:2])c2ccccc21; X3 = CCOC(=O)c1ccc(Nc2c(*)c(=O)c2=O)cc1; X8 = O=C(O)c1ccc(Nc2c(*)c(=O)c2=O)cc1; X1 = O=c1c(Nc2c(Cl)cccc2Cl)c(*)c1=O; Hyp = O=C(O)[C@@H]1C[C@@H](O)CN1; NMeNle = CCCC[C@H](NC)C(=O)O; X2 = CC(C)Oc1c(*)c(=O)c1=O; X5 = CN(C)c1c(*)c(=O)c1=O; NMeA = CN[C@@H](C)C(=O)O; Orn = NCCC[C@H](N)C(=O)O; X7 = CCOc1c(*)c(=O)c1=O; Dap = NC[C@H](N)C(=O)O; X4 = COc1c(*)c(=O)c1=O

Biological target: T1, PD-1/PD-L1 (Homo sapiens, UniProt Q9NZQ7)
T1 construct: TVMV protease site linker (C); made in house; host or cells: HEK293T cells
Assay: PD-1/PD-L1 Homogenous Time-Resolved Fluorescence (HTRF) binding assay
Settings: PD-L1-His 10 nM, PD-1-Ig 20 nM; soluble extracellular domains
Source text: The ability of the compounds of formula (I) to bind to PD-L1 was investigated using a PD-1/PD-L1 Homogenous Time-Resolved Fluorescence (HTRF) binding assay.
The interaction of PD-1 and PD-L1 can be assessed using soluble, purified preparations of the extracellular domains of the two proteins. The PD-1 and PD-L1 protein extracellular domains were expressed as fusion proteins with detection tags, for PD-1, the tag was the Fc portion of Immunoglobulin (PD-1-Ig) and for PD-L1 it was the 6 histidine motif (PD-L1-His). All binding studies were performed in an HTRF assay buffer consisting of dPBS supplemented with 0.1% […] bovine serum albumin and 0.05% (v/v) Tween-20. For the h/PD-L1-His binding assay, inhibitors were pre-incubated with PD-L1-His (10 nM final) for 15 m in 4 μl of assay buffer, followed by addition of PD-1-Ig (20 nM final) in 1 μl of assay buffer and further incubation for 15 m. HTRF detection was achieved using europium crypate-labeled anti-Ig (1 nM final) and allophycocyanin (APC) labeled anti-His (20 nM final). Antibodies were diluted in HTRF detection buffer and 5 μl was dispensed on top of the binding reaction. The reaction mixture was allowed to equilibrate for 30 minutes and the resulting signal (665 nm/620 nm ratio) was obtained using an EnVision fluorometer. Additional binding assays were established between the human proteins PD-1-Ig/PD-L2-His (20 & 5 nM, respectively) and CD80-His/PD-L1-Ig (100 & 10 nM, respectively).
Recombinant Proteins: Human PD-1 (25-167) with a C-terminal human Fc domain of immunoglobulin G (Ig) epitope tag [hPD-1 (25-167)-3S-IG] and human PD-L1 (18-239) with a C-terminal His epitope tag [hPD-L1(18-239)-TVMV-His] were expressed in HEK293T cells and purified sequentially by ProteinA affinity chromatography and size exclusion chromatography. Human PD-L2-His and CD80-His was obtained through commercial sources.
Table 1 lists the IC50 values for representative examples of this disclosure measured in the PD-1/PD-L1 Homogenous Time-Resolved Fluorescence (HTRF) binding assay.

T1 sequence (Q9NZQ7 18-239): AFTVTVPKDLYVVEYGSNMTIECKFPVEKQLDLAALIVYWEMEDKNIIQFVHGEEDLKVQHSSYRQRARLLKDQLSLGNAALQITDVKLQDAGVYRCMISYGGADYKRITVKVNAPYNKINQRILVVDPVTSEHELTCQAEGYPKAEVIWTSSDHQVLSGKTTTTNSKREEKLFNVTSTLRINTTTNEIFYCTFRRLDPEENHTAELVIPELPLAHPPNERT

Structure (SMILES): CCCC[C@H]1C(=O)N(C)[C@@H](CCCC)C(=O)N[C@@H](CC(C)C)C(=O)N[C@H](C(=O)NCC(N)=O)CSCC(=O)N[C@@H](Cc2ccc(O)cc2)C(=O)N(C)[C@@H](C)C(=O)N[C@@H](CC(N)=O)C(=O)N2CCC[C@H]2C(=O)N[C@@H](CNc2c(OC)c(=O)c2=O)C(=O)N[C@@H](CC(C)C)C(=O)N2C[C@H](O)C[C@H]2C(=O)N[C@@H](Cc2c[nH]c3ccccc23)C(=O)N[C@@H](CCCNc2c(OC)c(=O)c2=O)C(=O)N[C@@H](Cc2cn(CC(=O)O)c3ccccc23)C(=O)N1C [Compound 1001] ({CH2CO}-Y[NMeA]NP[Dap](X4)L[Hyp]W[Orn](X4)[Trp(1-CH2COOH)][NMeNle][NMeNle]LCG-NH2; thioether N-14)
- IC50: 4.2 nM

Structure (SMILES): CCCC[C@H]1C(=O)N(C)[C@@H](CCCC)C(=O)N[C@@H](CC(C)C)C(=O)N[C@H](C(=O)NCC(N)=O)CSCC(=O)N[C@@H](Cc2ccc(O)cc2)C(=O)N(C)[C@@H](C)C(=O)N[C@@H](CC(N)=O)C(=O)N2CCC[C@H]2C(=O)N[C@@H](CNc2c(OC)c(=O)c2=O)C(=O)N[C@@H](CC(C)C)C(=O)N2C[C@H](O)C[C@H]2C(=O)N[C@@H](Cc2c[nH]c3ccccc23)C(=O)N[C@@H](CCCN)C(=O)N[C@@H](Cc2cn(CC(=O)O)c3ccccc23)C(=O)N1C [Compound 1002] ({CH2CO}-Y[NMeA]NP[Dap](X4)L[Hyp]W[Orn][Trp(1-CH2COOH)][NMeNle][NMeNle]LCG-NH2; thioether N-14)
- IC50: 3.6 nM

Structure (SMILES): CCCC[C@H]1C(=O)N(C)[C@@H](CCCC)C(=O)N[C@@H](CC(C)C)C(=O)N[C@H](C(=O)NCC(N)=O)CSCC(=O)N[C@@H](Cc2ccc(O)cc2)C(=O)N(C)[C@@H](C)C(=O)N[C@@H](CC(N)=O)C(=O)N2CCC[C@H]2C(=O)N[C@@H](CNc2c(OCC)c(=O)c2=O)C(=O)N[C@@H](CC(C)C)C(=O)N2C[C@H](O)C[C@H]2C(=O)N[C@@H](Cc2c[nH]c3ccccc23)C(=O)N[C@@H](CCCNc2c(OCC)c(=O)c2=O)C(=O)N[C@@H](Cc2cn(CC(=O)OCC)c3ccccc23)C(=O)N1C [Compound 1003] ({CH2CO}-Y[NMeA]NP[Dap](X7)L[Hyp]W[Orn](X7)[X6][NMeNle][NMeNle]LCG-NH2; thioether N-14)
- IC50: 16 nM

Structure (SMILES): CCCC[C@H]1C(=O)N(C)[C@@H](CCCC)C(=O)N[C@@H](CC(C)C)C(=O)N[C@H](C(=O)NCC(N)=O)CSCC(=O)N[C@@H](Cc2ccc(O)cc2)C(=O)N(C)[C@@H](C)C(=O)N[C@@H](CC(N)=O)C(=O)N2CCC[C@H]2C(=O)N[C@@H](CNc2c(N(C)C)c(=O)c2=O)C(=O)N[C@@H](CC(C)C)C(=O)N2C[C@H](O)C[C@H]2C(=O)N[C@@H](Cc2c[nH]c3ccccc23)C(=O)N[C@@H](CCCNc2c(N(C)C)c(=O)c2=O)C(=O)N[C@@H](Cc2cn(CC(=O)O)c3ccccc23)C(=O)N1C [Compound 1004] ({CH2CO}-Y[NMeA]NP[Dap](X5)L[Hyp]W[Orn](X5)[Trp(1-CH2COOH)][NMeNle][NMeNle]LCG-NH2; thioether N-14)
- IC50: 4.3 nM

Structure (SMILES): CCCC[C@H]1C(=O)N(C)[C@@H](CCCC)C(=O)N[C@@H](CC(C)C)C(=O)N[C@H](C(=O)NCC(N)=O)CSCC(=O)N[C@@H](Cc2ccc(O)cc2)C(=O)N(C)[C@@H](C)C(=O)N[C@@H](CC(N)=O)C(=O)N2CCC[C@H]2C(=O)N[C@@H](CNc2c(Nc3ccc(C(=O)OCC)cc3)c(=O)c2=O)C(=O)N[C@@H](CC(C)C)C(=O)N2C[C@H](O)C[C@H]2C(=O)N[C@@H](Cc2c[nH]c3ccccc23)C(=O)N[C@@H](CCCNc2c(Nc3ccc(C(=O)OCC)cc3)c(=O)c2=O)C(=O)N[C@@H](Cc2cn(CC(=O)O)c3ccccc23)C(=O)N1C [Compound 1005] ({CH2CO}-Y[NMeA]NP[Dap](X3)L[Hyp]W[Orn](X3)[Trp(1-CH2COOH)][NMeNle][NMeNle]LCG-NH2; thioether N-14)
- IC50: 1.4 nM

Structure (SMILES): CCCC[C@H]1C(=O)N(C)[C@@H](CCCC)C(=O)N[C@@H](CC(C)C)C(=O)N[C@H](C(=O)NCC(N)=O)CSCC(=O)N[C@@H](Cc2ccc(O)cc2)C(=O)N(C)[C@@H](C)C(=O)N[C@@H](CC(N)=O)C(=O)N2CCC[C@H]2C(=O)N[C@@H](CNc2c(Nc3c(Cl)cccc3Cl)c(=O)c2=O)C(=O)N[C@@H](CC(C)C)C(=O)N2C[C@H](O)C[C@H]2C(=O)N[C@@H](Cc2c[nH]c3ccccc23)C(=O)N[C@@H](CCCNc2c(Nc3c(Cl)cccc3Cl)c(=O)c2=O)C(=O)N[C@@H](Cc2cn(CC(=O)O)c3ccccc23)C(=O)N1C [Compound 1006] ({CH2CO}-Y[NMeA]NP[Dap](X1)L[Hyp]W[Orn](X1)[Trp(1-CH2COOH)][NMeNle][NMeNle]LCG-NH2; thioether N-14)
- IC50: 2.8 nM

Structure (SMILES): CCCC[C@H]1C(=O)N(C)[C@@H](CCCC)C(=O)N[C@@H](CC(C)C)C(=O)N[C@H](C(=O)NCC(N)=O)CSCC(=O)N[C@@H](Cc2ccc(O)cc2)C(=O)N(C)[C@@H](C)C(=O)N[C@@H](CC(N)=O)C(=O)N2CCC[C@H]2C(=O)N[C@@H](CNc2c(OC(C)C)c(=O)c2=O)C(=O)N[C@@H](CC(C)C)C(=O)N2C[C@H](O)C[C@H]2C(=O)N[C@@H](Cc2c[nH]c3ccccc23)C(=O)N[C@@H](CCCNc2c(OC(C)C)c(=O)c2=O)C(=O)N[C@@H](Cc2cn(CC(=O)O)c3ccccc23)C(=O)N1C [Compound 1007] ({CH2CO}-Y[NMeA]NP[Dap](X2)L[Hyp]W[Orn](X2)[Trp(1-CH2COOH)][NMeNle][NMeNle]LCG-NH2; thioether N-14)
- IC50: 1.6 nM

Structure (SMILES): CCCC[C@H]1C(=O)N(C)[C@@H](CCCC)C(=O)N[C@@H](CC(C)C)C(=O)N[C@H](C(=O)NCC(N)=O)CSCC(=O)N[C@@H](Cc2ccc(O)cc2)C(=O)N(C)[C@@H](C)C(=O)N[C@@H](CC(N)=O)C(=O)N2CCC[C@H]2C(=O)N[C@@H](CNc2c(Nc3ccc(C(=O)O)cc3)c(=O)c2=O)C(=O)N[C@@H](CC(C)C)C(=O)N2C[C@H](O)C[C@H]2C(=O)N[C@@H](Cc2c[nH]c3ccccc23)C(=O)N[C@@H](CCCNc2c(Nc3ccc(C(=O)O)cc3)c(=O)c2=O)C(=O)N[C@@H](Cc2cn(CC(=O)O)c3ccccc23)C(=O)N1C [Compound 1009] ({CH2CO}-Y[NMeA]NP[Dap](X8)L[Hyp]W[Orn](X8)[Trp(1-CH2COOH)][NMeNle][NMeNle]LCG-NH2; thioether N-14)
- IC50: 2.9 nM
